Each structure is given as a SMILES string. The source made the active and inactive calls. The rule behind the calls is not given here.

The test system of data set [1] is HEK-293T. In words: Cytotoxicity against HEK293T cells assessed as reduction in viable cells at 125 uM incubated for 24 hrs by CCK-8 assay. The class given is toxicity, cell-based. The settings on record: human.
Data set [2] relates to Escherichia coli. As to the kind of experiment: Antibacterial activity against Escherichia coli K12 expressing modified luxABCDE genes assessed as reduction in bacterial growth by measuring reduction in bioluminescence at 0.002 to 2.5 mM incubated for 16 hrs by microplate reader analysis. It is filed as functional, organism-based. The settings on record: dose 0.002-2.5 mM.

For data set [3], the system named is HEK-293T. As to the kind of experiment: Cytotoxicity against HEK293T cells assessed as morphological changes at 30 uM. The class given is toxicity, cell-based. Particulars: human.
In data set [4] the test system is Escherichia coli. In words: Antibacterial activity against Escherichia coli K12 expressing modified luxABCDE genes assessed as reduction in bacterial growth by measuring reduction in optical density at 0.002 to 2.5 mM incubated for 16 hrs by microplate reader analysis. It is filed as functional, organism-based. The settings on record: dose 0.002-2.5 mM.
The test system of data set [5] is HEK-293T. In words: Cytotoxicity against HEK293T cells at 30 uM incubated for 24 hrs by LDH assay. The settings on record: human. The class given is toxicity, cell-based.
Data set [6] deals with Escherichia coli. In words: Bactericidal activity against Escherichia coli K12 expressing modified luxABCDE genes assessed as reduction in luminescence at 0.625 mM incubated for 16 hrs by microplate reader analysis. The class given is functional, organism-based.
Data set [7] deals with Escherichia coli. In words: Inhibition of Escherichia coli RNA polymerase-mediated processive transcription elongation at polythymidine sequence at 2 mM incubated for 5 mins by PAGE analysis.
The species named for data set [8] is Homo sapiens. In words: Substrate activity at human mitochondria RNA polymerase assessed as one nucleotide extension of transcription elongation complex by measuring incorporation of 4-ethylthioshowdomycin-5'-monophosphate into RNA at 100 uM incubated for 1 min by ATTO680 fluorophore based PAGE analysis.
The species entered for data set [9] is Homo sapiens. As to the kind of experiment: Substrate activity at human mitochondria RNA polymerase assessed as two nucleotide extension of transcription elongation complex by measuring incorporation of 4-ethylthioshowdomycin-5'-monophosphate into RNA at 100 uM incubated for 1 min in presence of GTP by ATTO680 fluorophore based PAGE analysis.
The subject of data set [10] is Escherichia coli. As to the kind of experiment: Substrate activity at Escherichia coli RNA polymerase assessed as one nucleotide extension of transcription elongation complex by measuring incorporation of 4-ethylthioshowdomycin-5'-monophosphate into RNA at 100 uM incubated for 1 min by ATTO680 fluorophore based PAGE analysis.
The test system of data set [11] is Saccharomyces cerevisiae. As to the kind of experiment: Inhibition of Saccharomyces cerevisiae RNA polymerase 2-mediated processive transcription elongation at polythymidine sequence at 2 mM incubated for 5 mins by PAGE analysis.
The test system of data set [12] is Escherichia coli. In words: Antibacterial activity against Escherichia coli K12 expressing modified luxABCDE genes assessed as reduction in bacterial growth by measuring reduction in bioluminescence incubated for 16 hrs by microplate reader analysis. The class given is functional, organism-based. Particulars: DDE = dose-dependent effect.
In data set [13] the test system is Escherichia coli. In words: Antibacterial activity against Escherichia coli K12 expressing modified luxABCDE genes assessed as reduction in bacterial growth by measuring reduction in optical density incubated for 16 hrs by microplate reader analysis. The class given is functional, organism-based. Particulars: DDE = dose-dependent effect.
Data set [14] relates to Escherichia coli. In words: Substrate activity at Escherichia coli RNA polymerase assessed as extension of transcription elongation complex by measuring incorporation into RNA in place of UTP at 100 uM incubated for 1 min in presence of GTP by PAGE analysis.
Data set [15] has as its system Escherichia coli. In words: Antibacterial activity against Escherichia coli K12 expressing modified luxABCDE genes assessed as reduction in bacterial growth by measuring reduction in bioluminescence at 40 uM incubated for 16 hrs by microplate reader analysis. The class given is functional, organism-based.
Data set [16] relates to Escherichia coli. In words: Antibacterial activity against Escherichia coli K12 expressing modified luxABCDE genes assessed as reduction in bacterial growth by measuring reduction in optical density at 40 uM incubated for 16 hrs by microplate reader analysis. The class given is functional, organism-based.
The species entered for data set [17] is Homo sapiens. As to the kind of experiment: Substrate activity at human mitochondria RNA polymerase assessed as extension of transcription elongation complex by measuring incorporation into RNA in place of UTP at 100 uM incubated for 1 min in presence of GTP by PAGE analysis.
The test system of data set [18] is Saccharomyces cerevisiae. In words: Substrate activity at Saccharomyces cerevisiae RNA polymerase 2 assessed as extension of transcription elongation complex by measuring incorporation into RNA in place of UTP at 100 uM incubated for 1 min in presence of GTP by PAGE analysis.
For data set [19], the system named is Escherichia coli. In words: Bactericidal activity against Escherichia coli K12 expressing modified luxABCDE genes assessed as reduction in luminescence at 2.5 mM incubated for 16 hrs by microplate reader analysis. The class given is functional, organism-based.
The test system of data set [20] is HEK-293T. As to the kind of experiment: Cytotoxicity against HEK293T cells assessed as morphological changes at 125 uM. The class given is toxicity, cell-based. The settings on record: human.
For data set [21], the system named is Escherichia coli. As to the kind of experiment: Antibacterial activity against Escherichia coli K12 expressing modified luxABCDE genes assessed as reduction in bacterial growth by measuring reduction in optical density at 0.002 to 2.5 mM incubated for 16 hrs in presence of uridine at 0.002 to 12.5 mM by microplate reader analysis. The class given is functional, organism-based. Particulars: dose 0.002-2.5 mM.

Data set [22] has as its system HEK-293T. As to the kind of experiment: Cytotoxicity against HEK293T cells assessed as reduction in viable cells at 500 uM incubated for 24 hrs by CCK-8 assay. It is filed as toxicity, cell-based. The settings on record: human.
Data set [23] relates to HEK-293T. As to the kind of experiment: Cytotoxicity against HEK293T cells at 125 uM incubated for 24 hrs by LDH assay. The class given is toxicity, cell-based. The settings on record: human.
The subject of data set [24] is Escherichia coli. As to the kind of experiment: Antibacterial activity against Escherichia coli K12 expressing modified luxABCDE genes assessed as reduction in bacterial growth by measuring reduction in bioluminescence at 0.002 to 2.5 mM incubated for 16 hrs in presence of uridine at 0.002 to 12.5 mM by microplate reader analysis. It is filed as functional, organism-based. The settings on record: dose 0.002-2.5 mM.

Data set [25] has as its system Escherichia coli. As to the kind of experiment: Antibacterial activity against Escherichia coli K12 expressing modified luxABCDE genes assessed as reduction in bacterial growth by measuring reduction in bioluminescence at low concentrations measured after 250 mins by microplate reader analysis. The class given is functional, organism-based.

In the case of `O=C1C=C([C@@H]2O[C@H](CO)[C@@H](O)[C@H]2O)C(=O)N1`, the Activity entry with HEK-293T [1], in the data set on HEK-293T [3] and with HEK-293T [5] was “Toxic” each time. In addition, the result in the data set on Escherichia coli [2], with Escherichia coli [4] and in the data set with Escherichia coli [6] was Active.
Take `CCSC1=C([C@@H]2O[C@H](COP(=O)(O)OP(=O)(O)OP(=O)(O)O)[C@@H](O)[C@H]2O)C(=O)NC1=O`: the inhibition result in the data set on Escherichia coli [7] and in the data set on Saccharomyces cerevisiae [11] was “Active” throughout. Besides, the outcome in the data set listed under Homo sapiens [8], in the data set filed under Homo sapiens [9] and in the data set with Escherichia coli [10] was Active.
Regarding `N=C(N)NCC(=O)N(O)C(CCC(N)=O)C(=O)NC[C@H]1O[C@@H](c2c[nH]c(=O)[nH]c2=O)[C@H](O)[C@@H]1O` (stereo partly drawn), the Activity entry in the data set with Escherichia coli [12] and in the data set with Escherichia coli [13] was “Dde” each time.
For `C[C@H](SC1=C([C@@H]2O[C@H](COP(=O)(O)OP(=O)(O)OP(=O)(O)O)[C@@H](O)[C@H]2O)C(=O)NC1=O)C(=O)O`, the outcome in the data set on Escherichia coli [14] was Active.
Regarding `NC[C@H]1O[C@H](O[C@H]2[C@H](O)[C@@H](O[C@H]3O[C@H](CO)[C@@H](O)[C@H](N)[C@H]3O)[C@H](N)C[C@@H]2N)[C@H](O)[C@@H](O)[C@@H]1O`, the outcome in the data set on Escherichia coli [15] and with Escherichia coli [16] was Active.
As for `C[Se]C1=C([C@@H]2O[C@H](COP(=O)(O)OP(=O)(O)OP(=O)(O)O)[C@@H](O)[C@H]2O)C(=O)NC1=O`, the outcome in the data set filed under Homo sapiens [17], in the data set on Escherichia coli [14] and in the data set on Saccharomyces cerevisiae [18] was Active. For the same molecule, the inhibition result in the data set on Escherichia coli [7] and in the data set with Saccharomyces cerevisiae [11] was “Active” throughout.
Take `CCSC1=C([C@@H]2O[C@H](CO)[C@@H](O)[C@H]2O)C(=O)NC1=O`: the result with Escherichia coli [19], with Escherichia coli [2], in the data set with Escherichia coli [4], in the data set with Escherichia coli [21], with Escherichia coli [24] and with Escherichia coli [25] was Active. In addition, the Activity entry in the data set with HEK-293T [20], with HEK-293T [22] and in the data set with HEK-293T [23] was “Toxic” in each case.
Regarding `CSC1=C([C@@H]2O[C@H](COP(=O)(O)OP(=O)(O)OP(=O)(O)O)[C@@H](O)[C@H]2O)C(=O)NC1=O`, the result in the data set listed under Homo sapiens [17], in the data set with Escherichia coli [14] and in the data set on Saccharomyces cerevisiae [18] was Active. The inhibition result in the data set on Escherichia coli [7] and with Saccharomyces cerevisiae [11] was “Active” in each case.
As for `CN[C@@H]1[C@@H](O[C@H]2O[C@H](CO)[C@@H](N)[C@H](O)[C@H]2O)O[C@H]2C[C@@H](N)[C@@H](O[C@H]3[C@H](O)[C@@H](O)[C@H](N)C[C@@H]3N)O[C@@H]2[C@@H]1O`, the result in the data set with Escherichia coli [15] and in the data set with Escherichia coli [16] was Active.
Turning to `C[C@@H](SC1=C([C@@H]2O[C@H](COP(=O)(O)OP(=O)(O)OP(=O)(O)O)[C@@H](O)[C@H]2O)C(=O)NC1=O)C(=O)O`, the outcome with Escherichia coli [14] was Active.
Regarding `O=C1NC(=O)C([C@@H]2O[C@H](COP(=O)(O)OP(=O)(O)OP(=O)(O)O)[C@@H](O)[C@H]2O)=C1Br`, the result in the data set filed under Homo sapiens [17], in the data set on Escherichia coli [14] and in the data set on Saccharomyces cerevisiae [18] was Active. For the same molecule, the inhibition result with Escherichia coli [7] and with Saccharomyces cerevisiae [11] was “Active” in each case.

Values taken from ChEMBL document CHEMBL5137012, “The role of the maleimide ring system on the structure-activity relationship of showdomycin” (Eur J Med Chem, 2022).
